In patent publication US20080039422A1, “Vitamin B12-Containing Compositions and Methods of Use” (Transition Therapeutics Inc., priority 2004, published 2008):

Key:
Assay type in all cases: physicochemical
[1] = Stability of CN-Cbl solutions stored at room temperature (3 days, 2 weeks); conditions: After 2 weeks at Room Temperature, ethanol 0%, PG 0% (v/v)
[2] = Formulation of a buffer system; conditions: 0.025 M phosphate buffer system, pH 8
Method: It was also noted that changes in pH occurred during the solubility study. […] A suitable 0.025 M buffer system was developed containing 7.25 mg/ml disodium hydrogen phosphate dodecahydrate and 0.74 mg/ml sodium dihydrogen phosphate dihydrate.

[3] = Effects of temperature of heating solution on long-term stability
Method: To study the effect of temperature, in some experiments, the solutions were heated to only 37° C. for 15 minutes (unless otherwise noted, the solutions were prepared as described above: by heating them to 60° C. for two hours, with additional mixing by vortexing carried out for 5-10 seconds every 5-10 minutes).
The effect of heating the solutions to different temperatures on long-term stability was tested. Solutions challenged with 50 or 75 mg/ml CN-Cbl containing 20% ethanol and 20-40% propylene glycol that were prepared at 60° C. and 37° C. were compared. The concentrations of CN-Cbl in solutions prepared at 60° C. were measured after three days, and the concentrations of CN-Cbl in solutions prepared at 37° C. were measured after two weeks. No significant difference was found in the concentrations of CN-Cbl in these solutions when the challenge amount was 50 mg/ml and only a slight difference when the challenge amount was 75 mg/ml. Solutions challenged with either 50 or 75 mg/ml CN-Cbl and containing ethanol and/or propylene glycol were heated to 37° C. (in which case, the concentration of CN-Cbl was measured after two weeks incubation at room temperature) or 60° C. (in which case, the concentration of CN-Cbl was measured after three days incubation at room temperature). Additional information regarding stability was obtained in the experiments described below.

[4] = Stability of CN-Cbl solutions stored at room temperature (3 days, 2 weeks); conditions: for Conc of CN-Cbl: After 2 weeks at Room Temperature; for concentration of CN-Cbl: After 3 days at Room Temperature, challenge 50 mg/ml
Method: To determine the stability of the various solutions, the clarified stocks were aliquoted into fresh tubes and stored at room temperature, protected from light, for up to two weeks. Prior to measuring the concentrations of CN-Cbl on subsequent occasions, the tubes were centrifuged for ten minutes at rcf 16,100. The concentration of CN-Cbl was measured as described above by spectrophotometry.
In the experiments described above, the concentration of CN-Cbl was measured within an hour or two after the components of the solutions were initially combined. To determine the stability of the preparations, the concentrations of CN-Cbl were measured in individual excipients after three days and the concentrations of CN-Cbl in combined excipients were measured after two weeks. Tables 3A-3B are tables showing the concentrations of CN-Cbl (mg/ml) in various solutions after three days incubation at room temperature. Solutions containing 0-60% propylene glycol (Table 3A) and solutions containing 0-40% ethanol (Table 3B) were challenged with 50, 75, 100, and 125 mg/ml CN-Cbl. Table 4 is a table showing the concentrations of CN-Cbl in excipients containing ethanol and propylene glycol after two weeks incubation at room temperature. The solutions were challenged with either 50 or 75 mg/ml CN-Cbl and the excipients contained ethanol (10, 15, or 20%) and propylene glycol (20, 30, or 40%). […] Regardless of the diminution in concentration over time, however, it was hypothesized that the initial concentrations of CN-Cbl could be restored with an additional application of energy (e.g., mixing, heating, or both mixing and heating; see below).

## cyanocobalamin [CN-Cbl]
[1]; challenge 50 mg/mL
  Conc of CN-Cbl: 11460 µg/mL
[1]; challenge 75 mg/mL
  Conc of CN-Cbl: 12310 µg/mL
[2]
  reduction of pH of the buffered solution on addition of CN-Cbl: 0.1 pH unit
[3]; heated to 37 degrees, After 2 weeks at Room Temperature, challenge 50 mg/mL, ethanol 20%, PG 20%
  Conc of CN-Cbl: 47080 µg/mL
[3]; heated to 37 degrees, After 2 weeks at Room Temperature, challenge 50 mg/mL, ethanol 20%, PG 30%
  Conc of CN-Cbl: 49780 µg/mL
[3]; heated to 37 degrees, After 2 weeks at Room Temperature, challenge 50 mg/mL, ethanol 20%, PG 40%
  Conc of CN-Cbl: 49870 µg/mL
[3]; heated to 37 degrees, After 2 weeks at Room Temperature, challenge 75 mg/mL, ethanol 20%, PG 20%
  Conc of CN-Cbl: 38390 µg/mL
[3]; heated to 37 degrees, After 2 weeks at Room Temperature, challenge 75 mg/mL, ethanol 20%, PG 30%
  Conc of CN-Cbl: 59620 µg/mL
[3]; heated to 37 degrees, After 2 weeks at Room Temperature, challenge 75 mg/mL, ethanol 20%, PG 40%
  Conc of CN-Cbl: 75820 µg/mL
[3]; heated to 60 degrees, After 3 days at Room Temperature, challenge 50 mg/mL, ethanol 0%, PG 0%
  Conc of CN-Cbl: 12850 µg/mL
[3]; heated to 60 degrees, After 3 days at Room Temperature, challenge 50 mg/mL, ethanol 20%, PG 0%
  Conc of CN-Cbl: 24410 µg/mL
[3]; heated to 60 degrees, After 3 days at Room Temperature, challenge 50 mg/mL, ethanol 20%, PG 10%
  Conc of CN-Cbl: 32320 µg/mL
[3]; heated to 60 degrees, After 3 days at Room Temperature, challenge 50 mg/mL, ethanol 20%, PG 20%
  Conc of CN-Cbl: 49870 µg/mL
[3]; heated to 60 degrees, After 3 days at Room Temperature, challenge 50 mg/mL, ethanol 20%, PG 30%
  Conc of CN-Cbl: 48330 µg/mL
[3]; heated to 60 degrees, After 3 days at Room Temperature, challenge 50 mg/mL, ethanol 20%, PG 40%
  Conc of CN-Cbl: 50360 µg/mL
[3]; heated to 60 degrees, After 3 days at Room Temperature, challenge 75 mg/mL, ethanol 0%, PG 0%
  Conc of CN-Cbl: 14010 µg/mL
[3]; heated to 60 degrees, After 3 days at Room Temperature, challenge 75 mg/mL, ethanol 20%, PG 0%
  Conc of CN-Cbl: 24410 µg/mL
[3]; heated to 60 degrees, After 3 days at Room Temperature, challenge 75 mg/mL, ethanol 20%, PG 10%
  Conc of CN-Cbl: 30100 µg/mL
[3]; heated to 60 degrees, After 3 days at Room Temperature, challenge 75 mg/mL, ethanol 20%, PG 20%
  Conc of CN-Cbl: 60780 µg/mL
[3]; heated to 60 degrees, After 3 days at Room Temperature, challenge 75 mg/mL, ethanol 20%, PG 30%
  Conc of CN-Cbl: 76600 µg/mL
[3]; heated to 60 degrees, After 3 days at Room Temperature, challenge 75 mg/mL, ethanol 20%, PG 40%
  Conc of CN-Cbl: 74280 µg/mL
[4]; challenge 50 mg/mL, ethanol 10%, PG 20% (v/v)
  Conc of CN-Cbl: 26680 µg/mL
[4]; challenge 50 mg/mL, ethanol 10%, PG 30% (v/v)
  Conc of CN-Cbl: 39460 µg/mL
[4]; challenge 50 mg/mL, ethanol 10%, PG 40% (v/v)
  Conc of CN-Cbl: 50650 µg/mL
[4]; challenge 50 mg/mL, ethanol 15%, PG 20% (v/v)
  Conc of CN-Cbl: 48720 µg/mL
[4]; challenge 50 mg/mL, ethanol 15%, PG 30% (v/v)
  Conc of CN-Cbl: 49780 µg/mL
[4]; challenge 50 mg/mL, ethanol 15%, PG 40% (v/v)
  Conc of CN-Cbl: 49390 µg/mL
[4]; challenge 50 mg/mL, ethanol 20%, PG 20% (v/v)
  Conc of CN-Cbl: 47080 µg/mL
[4]; challenge 50 mg/mL, ethanol 20%, PG 30% (v/v)
  Conc of CN-Cbl: 49780 µg/mL
[4]; challenge 50 mg/mL, ethanol 20%, PG 40% (v/v)
  Conc of CN-Cbl: 49870 µg/mL
[4]; challenge 75 mg/mL, ethanol 10%, PG 20% (v/v)
  Conc of CN-Cbl: 26910 µg/mL
[4]; challenge 75 mg/mL, ethanol 10%, PG 30% (v/v)
  Conc of CN-Cbl: 35210 µg/mL
[4]; challenge 75 mg/mL, ethanol 10%, PG 40% (v/v)
  Conc of CN-Cbl: 55660 µg/mL
[4]; challenge 75 mg/mL, ethanol 15%, PG 20% (v/v)
  Conc of CN-Cbl: 33280 µg/mL
[4]; challenge 75 mg/mL, ethanol 15%, PG 30% (v/v)
  Conc of CN-Cbl: 43310 µg/mL
[4]; challenge 75 mg/mL, ethanol 15%, PG 40% (v/v)
  Conc of CN-Cbl: 74280 µg/mL
[4]; challenge 75 mg/mL, ethanol 20%, PG 20% (v/v)
  Conc of CN-Cbl: 38390 µg/mL
[4]; challenge 75 mg/mL, ethanol 20%, PG 30% (v/v)
  Conc of CN-Cbl: 59620 µg/mL
[4]; challenge 75 mg/mL, ethanol 20%, PG 40% (v/v)
  Conc of CN-Cbl: 75820 µg/mL
[4]; PG 0% v/v
  concentration of CN-Cbl: 13600 µg/mL
[4]; PG 10% v/v
  concentration of CN-Cbl: 19500 µg/mL
[4]; PG 20% v/v
  concentration of CN-Cbl: 25300 µg/mL
[4]; PG 30% v/v
  concentration of CN-Cbl: 31000 µg/mL
